{
  "source": "patent US7456197B2",
  "about": "“Pyridinium cationic lipids as gene transfer agents” (The Texas A&M University System, priority 2003, dated 2008)",
  "key": {"[1]": {"assay": "Cationic liposome size by dynamic light scattering", "format": "physicochemical", "method": "(§1) The three series of cationic lipids newly synthesized were assessed for their transfection efficiency in vitro, using the experimental conditions optimized in a previous study.^23 Essentially the cationic lipids were mixed with cholesterol at a 1:1 molar ratio, dissolved in chloroform/methanol and dried under vacuum to generate a lipid film. The dried lipid film was hydrated with sterile phosphate buffer isotonic saline with pH=7.4 (PBS) and sonicated to yield cationic liposomes. The resulting liposomal solution was allowed to react with a DNA solution to form the final cationic lipid-DNA complexes (lipoplexes), which were assessed for transfection efficiency using different cell cultures. We used a pGL3 plasmid (Promega, Madison, Wisc.), encoding a firefly luciferase gene under the control of the constitutively active SV40 promoter as the reporter for the transfection efficiency. An optimal^23 electrostatic charge ratio cationic lipid/DNA of 2:1 was used in all preparations. […] The ability of these new cationic lipids to generate relatively small cationic liposomes could be attributed to the relatively large curvature radius induced in the bilayer by the bulky pyridinium cationic head.\n(§2) Dioleoylphosphatidylethanolamine (DOPE), cholesterol (CHOL), N-(2,3-dioleoyloxypropyl)-N,N,N-trimethylammonium chloride (DOTAP) were commercial products. The purity of the lipids was checked by thin layer chromatography and also by differential scanning calorimetry (DSC), which was also used for determining the critical temperature Tc. For the preparation of the liposomes a protocol optimized for this type of compounds was adopted as follows. The cationic lipid (with or without helper lipid) was dissolved in chloroform/methanol (2/1, v/v) to reach a final concentration of 1 mM for the charged species. From this stock solution 50 μL were aliquoted in a 1 mL tube and the solvent was evaporated in a SpeedVac evaporator, under vacuum, for 1 h. The dried lipid film was prepared by removing the traces of organic solvent in a dessicator, over Drierite®, under vacuum, overnight. The film was hydrated with 500 μL sterile phosphate buffer saline (PBS) the tube was purged with sterile N2, and vortexed for 1 minute. The liposomes were generated by sonicating the tube in a water bath sonicator for 5-30 minutes at 62° C. and at 37° C. for DOTAP. After sonication the preparations were allowed to reach room temperature."}, "[2]": {"system": "lung cancer cell line NCI-H23", "assay": "Luciferase (pGL3) transfection efficiency of lipoplexes, NCI-H23", "format": "cell-based, human", "method": "as §1, §2\nFor generating the lipoplexes, 1.4-2.8 μL plasmid DNA solution (0.5 μg/μL) was diluted with 100 μL Optimem®. A liposome solution was prepared separately by diluting the initial liposomal stock solution (0.1 mM in cationic lipid) with Optimem® in specified proportions, to reach a final volume of 50 μL. Over this liposome solution 50 μL of the DNA stock solution was added, the tube was incubated for 30 minutes at room temperature and then the content diluted with 500 μL Optimem® (final volume of the lipoplex stock solution: 600 μL).\nThe lipoplexes was tested for their transfection properties over five different cancer cell lines—breast carcinoma (MCF-7 and MDA-Mb231), lung carcinoma (NCI-H23), prostate carcinoma (DU-145) and brain carcinoma (SWB-95). The cells were maintained in 10% fetal bovine serum (FBS)—enriched RPMI 1640 at 37° C. and 5% CO2 in a humidified atmosphere. Twenty-four hours prior to transfection the cells were transferred in 96-wells microtiter plate at a density of 20,000 cells/well. Each well received 100 μL medium and the plate was incubated in the same conditions. All experiments were done in triplicate or quadruplicate.\nImmediately before transfection the medium was removed from each well and the cells were briefly washed with 200 μL sterile PBS. After removal of the PBS each well received 100 μL lipoplex stock solution and the plate was placed in the incubator for 1 hour. Then, 100 μL medium was added to each well and the plate was incubated for 24 hours. […]"}, "[3]": {"system": "breast carcinoma MCF-7", "assay": "Luciferase (pGL3) transfection efficiency of lipoplexes, MCF-7", "format": "cell-based", "conditions": "optimized lipoplexes, Chol 1:1, FIG. 7", "description": "(§3) It is well known that specific cell types and cell lines may vary in their ability to be transfected. In addition to the NCI-H23 lung cancer cell line, we therefore tested our optimized formulation of 5AMyr/Chol 1:1 versus DOTAP/Chol 1:1 as reference on four other cell lines from tumors representing cancers of great importance to human health, as well as different tissues of origin: breast carcinomas MCF-7, MDA-Mb231, prostate carcinoma DU-145 and glioma SWB-95 (FIG. 7).\n(§4) Dioleoylphosphatidylethanolamine (DOPE), cholesterol (CHOL), N-(2,3-dioleoyloxypropyl)-N,N,N-trimethylammonium chloride (DOTAP) were commercial products. The purity of the lipids was checked by thin layer chromatography and also by differential scanning calorimetry (DSC), which was also used for determining the critical temperature Tc. For the preparation of the liposomes a protocol optimized for this type of compounds was adopted as follows. The cationic lipid (with or without helper lipid) was dissolved in chloroform/methanol (2/1, v/v) to reach a final concentration of 1 mM for the charged species. […]\n(§5) For the luciferase assay, 20 μL of cell lysate was aliquoted in a test tube and assessed directly using a luciferase assay kit from Promega by means of a luminometer.\n(§6) The protein content was quantified using a bicinchoninic acid (BCA) assay. […]"}, "[4]": {"system": "glioma SWB-95", "assay": "Luciferase (pGL3) transfection efficiency of lipoplexes, SWB-95", "format": "cell-based", "conditions": "optimized lipoplexes, Chol 1:1, FIG. 7", "description": "as §3, §4, §5, §6"}, "[5]": {"system": "lung cancer cell line NCI-H23", "assay": "Luciferase (pGL3) transfection efficiency of lipoplexes, NCI-H23", "format": "cell-based, human", "conditions": "exposure from one hour to three hours; data not shown"}},
  "note": "“Also recorded” adds a separate entry of the source.",
  "data": [
    {"compound": "CCCCCCCCCCCCCC(=O)OCC(COC(=O)CCCCCCCCCCCCC)[n+]1c(C)cc(C)cc1C.F[P-](F)(F)(F)(F)F", "note": "[Lipid 5AMyr, 1-(1,3-dimyristoyloxypropane-2-yl)-2,4,6-trimethylpyridinium hexafluorophosphate]", "values": [
      {"measurement": "average size of the cationic vesicles", "setting": "[1]; cholesterol at 1:1 molar ratio to cationic lipid", "result": 95, "unit": "nm"},
      {"measurement": "average size of the cationic vesicles", "setting": "[1]; molar ratio of cholesterol to lipid halved", "result": 88, "unit": "nm"},
      {"measurement": "transfection efficiency, counterion study", "setting": "[2]; 5Myr/Chol 1:1, PBS, sonicated two sequences of 15 minutes, FIG. 5", "result": "surpassed DOTAP in transfection efficiency"},
      {"measurement": "expression of luciferase relative to DOTAP/Chol 1:1", "setting": "[2]; cholesterol 1:1", "result": "about twice more effective than DOTAP"},
      {"measurement": "transfection efficiency (in words)", "setting": "[2]; cholesterol as helper lipid 1:1, charge ratio lipid/DNA 2:1", "result": "highest transfection peaks; also recorded: the most effective"},
      {"measurement": "transfection efficiency (luciferase activity normalized for protein)", "setting": "[2]; optimized lipoplexes, Chol 1:1, FIG. 7 caption (from FIG. 4)", "result": "576000 RLU/μg of protein"},
      {"measurement": "transfection efficiency (luciferase activity normalized for protein)", "setting": "[3]", "result": "206000 RLU/μg of protein"},
      {"measurement": "transfection efficiency (luciferase activity normalized for protein)", "setting": "[4]", "result": "10934 RLU/μg of protein"},
      {"measurement": "transfection efficiency on longer cell exposure to lipoplexes", "setting": "[5]", "result": "higher transfection efficiencies"}
    ]}
  ]
}
